This note sets out measurements from patent publication US9856216B2, “Compounds as TNIK, IKKε and TBK1 inhibitors and pharmaceutical composition comprising same” (GREEN CROSS CORPORATION, priority 2015, dated 2018).

T1 sequence (Q9UKE5 1-367 limits assumed): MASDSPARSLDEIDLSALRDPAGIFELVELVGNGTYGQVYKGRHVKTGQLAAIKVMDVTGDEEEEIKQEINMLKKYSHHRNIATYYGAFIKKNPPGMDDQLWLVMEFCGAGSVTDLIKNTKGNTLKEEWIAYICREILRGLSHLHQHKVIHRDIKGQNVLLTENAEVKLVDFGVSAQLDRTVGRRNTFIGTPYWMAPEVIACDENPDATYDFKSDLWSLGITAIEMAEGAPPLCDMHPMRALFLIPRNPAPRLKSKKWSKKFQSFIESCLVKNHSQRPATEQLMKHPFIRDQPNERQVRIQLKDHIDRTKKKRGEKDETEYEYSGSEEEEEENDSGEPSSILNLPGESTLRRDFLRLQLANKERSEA

This assay concerns the target T1, TNIK (Homo sapiens, UniProt Q9UKE5).
T1 construct: purchased Promega V4158
The experiment in a line: ADP-Glo Kinase Assay, inhibition activity on TNIK. Type of assay: biochemical. To be noted: read-out: TNIK. Here is the method:
The inhibition activities on TNIK, IKKε and TBK1 were measured by a luminometer, TNIK/IKKε/TBK1 Kinase Enzyme System (Promega, Ca# V4158; Invitrogen, PR8031B, Promega, Ca# V3991) and ADP-Glo Kinase Assay using ADP-Glo™ Kinase Analysis Kit (Promega, Ca# V9101) and a kinase reaction buffer [40 mM Tris(pH 7.5), 20 mM MgCl2, 0.1 mg/mL BSA] in accordance with the manufacturer's protocol.
With `COc1ccccc1Nc1ccc(NC(=O)c2ccc(F)cc2)c2c1CNC2=O` [Example 425, 4-Fluoro-N-(7-((2-methoxyphenyl)amino)-3-oxoisoindolin-4-yl)benzamide], the IC50 is 840 nM.

For `COc1ccc(-c2ccc(NC(=O)c3ccc(NC(C)=O)cc3)c3c2CNC3=O)cc1` [Example 120, 4-Acetamido-N-(7-(4-methoxyphenyl)-3-oxoisoindolin-4-yl) benzamide], the IC50 is > 20000 nM.

`CS(=O)(=O)c1ccccc1C(=O)Nc1ccc(-c2ccccc2)c2c1C(=O)NC2` [Example 98, 2-(Methylsulfonyl)-N-(3-oxo-7-phenylisoindolin-4-yl) benzamide]: the IC50 was determined as 10500 nM.

Take `O=C(Nc1ccc(-c2cccc3ncccc23)c2c1C(=O)NC2)c1ccc(F)cc1` [Example 215, 4-Fluoro-N-(3-oxo-7-(quinolin-5-yl)isoindolin-4-yl)benzamide]: the IC50 stood at 240 nM.

With `O=C(Nc1ccccc1)Nc1ccc(-c2ccc(F)cc2)c2c1C(=O)NC2` [Example 245, 1-(7-(4-Fluorophenyl)-3-oxoisoindolin-4-yl)-3-phenylurea], the IC50 came out at 6500 nM.

For `CS(=O)(=O)c1ccc(C(=O)Nc2ccc(-c3ccccc3)c3c2C(=O)NC3)cc1` [Example 100, 4-(Methylsulfonyl)-N-(3-oxo-7-phenylisoindolin-4-yl) benzamide], the IC50 was > 20000 nM.

As for `O=C(Nc1ccc(-c2cccs2)c2c1C(=O)NC2)c1ccc(NCCN2CCOCC2)cc1` [Example 375, 4-((2-Morpholinoethyl)amino)-N-(3-oxo-7-(thiophen-2-yl)isoindolin-4-yl) benzamide], the IC50 was found to be 540 nM.

On to `CN(C)CCNc1ccc(C(=O)Nc2ccc(-c3cccs3)c3c2C(=O)NC3)cc1` [Example 373, 4-((2-(Dimethylamino)ethyl)amino)-N-(3-oxo-7-(thiophen-2-yl)isoindolin-4-yl)benzamide], for which the IC50 was determined as 400 nM.

As for `COc1ccccc1-c1ccc(NC(=O)c2ccc(NCCCN3CCCCC3)cc2)c2c1CNC2=O` [Example 307, N-(7-(2-methoxyphenyl)-3-oxoisoindolin-4-yl)-4-((3-(piperidin-1-yl)propyl)amino)benzamide], the IC50 came to 190 nM.

Consider `CN(C)CCNc1ccc(-c2ccccc2)c2c1C(=O)NC2` [Example 255, 7-((2-(Dimethylamino)ethyl)amino)-4-phenylisoindolin-1-one], for which the IC50 was > 20000 nM.

`COc1ccccc1-c1ccc(NC(=O)c2ccc(NCc3cccs3)cc2)c2c1CNC2=O` [Example 334, N-(7-(2-methoxyphenyl)-3-oxoisoindolin-4-yl)-4-((thiophen-2-ylmethyl)amino)benzamide]: the IC50 was 410 nM.

As to `COCCCNc1ccc(C(=O)Nc2ccc(-c3ccccc3OC)c3c2C(=O)NC3)cc1` [Example 332, N-(7-(2-methoxyphenyl)-3-oxoisoindolin-4-yl)-4-((3-methoxypropyl)amino)benzamide], the IC50 was 510 nM.

For the compound `CN(C)c1ccccc1-c1ccc(NC(=O)c2ccccc2)c2c1CNC2=O` [Example 185, N-(7-(2-(dimethylamino)phenyl)-3-oxoisoindolin-4-yl) benzamide], the IC50 came out at 2800 nM.

With `CSc1ccc(-c2ccc(NC(=O)c3ccccc3)c3c2CNC3=O)cc1` [Example 41, N-(7-(4-(methylthio)phenyl)-3-oxoisoindolin-4-yl)benzamide], the IC50 was found to be 1200 nM.

As for `O=C(Nc1ccc(-c2ccc3ncccc3c2)c2c1C(=O)NC2)c1ccc(NCCN2CCCC2)cc1` [Example 385, N-(3-oxo-7-(quinolin-6-yl)isoindolin-4-yl)-4-((2-(pyrrolidin-1-yl)ethyl)amino)benzamide], the IC50 was 780 nM.

For `CC(C)c1cccc(-c2ccc(NC(=O)c3ccccc3)c3c2CNC3=O)c1` [Example 2, N-(7-(3-isopropylphenyl)-3-oxoisoindolin-4-yl)benzamide], the IC50 is > 20000 nM.

Consider `COc1ccccc1-c1ccc(NC(=O)c2ccc(NCCN3CCCCC3)cc2)c2c1CNC2=O` [Example 361, N-(7-(2-methoxyphenyl)-3-oxoisoindolin-4-yl)-4-((2-(piperidin-1-yl)ethyl)amino)benzamide], for which the IC50 was found to be 170 nM.

With `CN(C)CCCNc1ccc(C(=O)Nc2ccc(Br)c3c2C(=O)NC3)cc1` [Example 286, N-(7-bromo-3-oxoisoindolin-4-yl)-4-((3-(dimethylamino)propyl)amino)benzamide], the IC50 is 1480 nM.

With `CCCOc1ccccc1-c1ccc(NC(=O)c2ccccc2)c2c1CNC2=O` [Example 43, N-(3-oxo-7-(2-propoxyphenyl)isoindolin-4-yl)benzamide], the IC50 was > 20000 nM.

As for `COc1cccc(-c2ccc(NC(=O)c3ccc(NCCN4CCOCC4)cc3)c3c2CNC3=O)c1OC` [Example 297, N-(7-(2,3-dimethoxyphenyl)-3-oxoisoindolin-4-yl)-4-((2-morpholinoethyl)amino)benzamide], the IC50 is 75 nM.

On to `O=C(Nc1ccc(-c2ccc(CN3CCCC3)s2)c2c1C(=O)NC2)c1ccccc1` [Example 195, N-(3-oxo-7-(5-(pyrrolidin-1-ylmethyl)thiophen-2-yl)isoindolin-4-yl)benzamide], for which the IC50 is > 20000 nM.

For the compound `Cc1ccc(-c2ccc(NC(=O)c3ccccc3)c3c2CNC3=O)cc1` [Example 209, N-(3-oxo-7-(p-tolyl)isoindolin-4-yl)benzamide], the IC50 was 2800 nM.

As for `O=C(Nc1ccc(Nc2cc(C(F)(F)F)cc(C(F)(F)F)c2)c2c1C(=O)NC2)c1ccc(F)cc1` [Example 423, N-(7-((3,5-bis(trifluoromethyl)phenyl)amino)-3-oxoisoindolin-4-yl)-4-fluorobenzamide], the IC50 is > 20000 nM.

Turning to `O=C(Nc1ccc(-c2ccc(Cl)cc2Cl)c2c1C(=O)NC2)c1ccccc1` [Example 18, N-(7-(2,4-dichlorophenyl)-3-oxoisoindolin-4-yl)benzamide], the IC50 was > 20000 nM.

As for `O=C(Nc1ccc(-c2ccccc2)c2c1C(=O)NC2)NC1CCCC1` [Example 239, 1-Cyclopentyl-3-(3-oxo-7-phenylisoindolin-4-yl)urea], the IC50 was > 20000 nM.

For the compound `Cc1cccc(C)c1-c1ccc(NC(=O)c2ccccc2)c2c1CNC2=O` [Example 28, N-(7-(2,6-dimethylphenyl)-3-oxoisoindolin-4-yl)benzamide], the IC50 worked out at 1700 nM.

`O=C(Nc1ccc(Br)c2c1C(=O)NC2)c1ccc(NCCN2CCCCC2)cc1` [Example 284, N-(7-bromo-3-oxoisoindolin-4-yl)-4-((2-(piperidin-1-yl)ethyl)amino)benzamide]: the IC50 was 1550 nM.

Turning to `O=C(Nc1ccc(Nc2ccccc2)c2c1C(=O)NC2)c1ccc(NCCCO)cc1` [Example 464, 4-((3-Hydroxypropyl)amino)-N-(3-oxo-7-(phenylamino)isoindolin-4-yl)benzamide], the IC50 amounted to 74 nM.

With `Cc1ccccc1C(=O)Nc1ccc(-c2ccccc2)c2c1C(=O)NC2` [Example 87, 2-Methyl-N-(3-oxo-7-phenylisoindolin-4-yl)benzamide], the IC50 is 14600 nM.

For `O=C(Nc1ccc(Nc2ccccc2)c2c1C(=O)NC2)c1ccc(NCCO)cc1` [Example 487, 4-((2-Hydroxyethyl)amino)-N-(3-oxo-7-(phenylamino)isoindolin-4-yl)benzamide], the IC50 is 97 nM.

For `O=C(Nc1ccc(-c2ccccc2O)c2c1C(=O)NC2)c1ccc(NCCCCO)cc1` [Example 357, 4-((4-Hydroxybutyl)amino)-N-(7-(2-hydroxyphenyl)-3-oxoisoindolin-4-yl)benzamide], the IC50 was 640 nM.

For `CC(=O)c1cccc(-c2ccc(NC(=O)c3ccccc3)c3c2CNC3=O)c1` [Example 12, N-(7-(3-acetylphenyl)-3-oxoisoindolin-4-yl)benzamide], the IC50 was > 20000 nM.

As to `COc1cccc(-c2ccc(NC(=O)c3ccccc3)c3c2CNC3=O)c1OC` [Example 171, N-(7-(2,3-dimethoxyphenyl)-3-oxoisoindolin-4-yl)benzamide], the IC50 was 57 nM.

As for `O=C(Nc1ccc(-c2ccccc2)c2c1C(=O)NC2)c1ccc(F)cc1` [Example 122, 4-Fluoro-N-(3-oxo-7-phenylisoindolin-4-yl)benzamide], the IC50 came to 2200 nM.

As for `CC(C)NC(=O)Nc1ccc(-c2ccccc2)c2c1C(=O)NC2` [Example 234, 1-Isopropyl-3-(3-oxo-7-phenylisoindolin-4-yl)urea], the IC50 turned out to be 1900 nM.

Take `CCc1ccc(-c2ccc(NC(=O)c3ccccc3)c3c2CNC3=O)cc1` [Example 39, N-(7-(4-ethylphenyl)-3-oxoisoindolin-4-yl)benzamide]: the IC50 is 6100 nM.

Turning to `O=C(Nc1ccc(Nc2ccccc2)c2c1C(=O)NC2)c1ccc(NCCN2CCCC2)cc1` [Example 438, N-(3-oxo-7-(phenylamino)isoindolin-4-yl)-4-((2-(pyrrolidin-1-yl)ethyl)amino)benzamide], the IC50 stood at 160 nM.

Take `Cc1cccc(Nc2ccc(NC(=O)c3ccc(NCCN4CCCCC4)cc3)c3c2CNC3=O)c1C` [Example 471, N-(7-((2,3-dimethylphenyl)amino)-3-oxoisoindolin-4-yl)-4-((2-(piperidin-1-yl)ethyl)amino)benzamide]: the IC50 came out at 610 nM.

Regarding `COc1cccc(-c2ccc(NC(=O)c3ccc(NCCN(C)C)cc3)c3c2CNC3=O)c1OC` [Example 301, N-(7-(2,3-dimethoxyphenyl)-3-oxoisoindolin-4-yl)-4-((2-(dimethylamino)ethyl)amino)benzamide], the IC50 was 100 nM.

In the case of `COc1ccccc1Nc1ccc(NC(=O)c2ccc(NCCN3CCCCC3)cc2)c2c1CNC2=O` [Example 477, N-(7-((2-methoxyphenyl)amino)-3-oxoisoindolin-4-yl)-4-((2-(piperidin-1-yl)ethyl)amino)benzamide], the IC50 amounted to 420 nM.

With `COCCNc1ccc(C(=O)Nc2ccc(-c3ccccc3)c3c2C(=O)NC3)cc1` [Example 321, 4-((2-Methoxyethyl)amino)-N-(3-oxo-7-phenylisoindolin-4-yl) benzamide], the IC50 stood at 500 nM.
